# Laboratory results published in patent publication US20110086759A1, “CHEMICAL COMPOUNDS” (SYNGENTA CROP PROTECTION, INC., priority 2007, published 2011).
# What was measured:
# Type in all cases: in vivo
# Setaria faberi (SETFA) [1] = experiment: Post-emergence biological efficacy, glasshouse pot test; conditions: 312 h, Rate 1,000 g/ha, post-emergence spray, evaluated after 13 days (100=total damage to plant; 0=no damage to plant), read-out: Percentage damage caused to weed species, post-emergence, SETFA
# Procedure, shortened: (§1)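 Plants were sown in standard soil and grown 8 days in a glasshouse (24/16° C. day/night, 14 hours light, 65% humidity), then sprayed post-emergence at 1000 or 250 g/ha from acetone/water (50:50) with 0.5% Tween 20. Damage was scored visually after 13 days (0 = none, 100 = total).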
# [2] = system: Alopecurus myosuroides (ALOMY); experiment: as above; conditions: 312 h, Rate 1,000 g/ha, post-emergence spray, evaluated after 13 days (100=total damage to plant; 0=no damage to plant), read-out: Percentage damage caused to weed species, post-emergence, ALOMY
# Procedure, shortened: as §1
# [3] = system: Amaranthus retoflexus (AMARE); experiment: as above; conditions: Amaranthus retroflexus, 312 h; Rate 1,000 g/ha; post-emergence spray; evaluated after 13 days (100=total damage to plant; 0=no damage to plant); read-out: Percentage damage caused to weed species, post-emergence, AMARE
# Procedure, shortened: as §1
# Solanum nigrum (SOLNI) [4] = experiment: as above; conditions: 312 h, Rate 1,000 g/ha, post-emergence spray, evaluated after 13 days (100=total damage to plant; 0=no damage to plant), read-out: Percentage damage caused to weed species, post-emergence, SOLNI
# Procedure, shortened: as §1
# [5] = system: Ipomea hederaceae (IPOHE); experiment: as above; conditions: Ipomoea hederacea, 312 h; Rate 1,000 g/ha; post-emergence spray; evaluated after 13 days (100=total damage to plant; 0=no damage to plant); read-out: Percentage damage caused to weed species, post-emergence, IPOHE
# Procedure, shortened: as §1
# [6] = system: Echinochloa crus-galli (ECHCG); experiment: as above; conditions: 312 h, Rate 1,000 g/ha, post-emergence spray, evaluated after 13 days (100=total damage to plant; 0=no damage to plant), read-out: Percentage damage caused to weed species, post-emergence, ECHCG
# Procedure, shortened: as §1
# Setaria faberi (SETFA) [7] = experiment: Pre-emergence biological efficacy, glasshouse pot test; conditions: 312 h, pre-emergence, rate 1,000 g/ha, evaluated after 13 days (100=total damage to plant; 0=no damage), read-out: Percentage damage caused to weed species, SETFA
# Procedure, shortened: (§2)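 Compound was applied as a spray one day after sowing, at a final dose of 1000 or 250 g/ha. Plants grew under 14 h light, 24/16 °C and 65% humidity, and injury was assessed on day 13 on a 0–100 scale.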
# [8] = system: Alopecurus myosuroides (ALOMY); experiment: as above; conditions: 312 h, pre-emergence, rate 1,000 g/ha, evaluated after 13 days (100=total damage to plant; 0=no damage), read-out: Percentage damage caused to weed species, ALOMY
# Procedure, shortened: as §2
# [9] = system: Amaranthus retoflexus (AMARE); experiment: as above; conditions: Amaranthus retroflexus, 312 h; pre-emergence, rate 1,000 g/ha, evaluated after 13 days (100=total damage to plant; 0=no damage); read-out: Percentage damage caused to weed species, AMARE
# Procedure, shortened: as §2
# Solanum nigrum (SOLNI) [10] = experiment: as above; conditions: 312 h, pre-emergence, rate 1,000 g/ha, evaluated after 13 days (100=total damage to plant; 0=no damage), read-out: Percentage damage caused to weed species, SOLNI
# Procedure, shortened: as §2
# [11] = system: Ipomea hederaceae (IPOHE); experiment: as above; conditions: Ipomoea hederacea, 312 h; pre-emergence, rate 1,000 g/ha, evaluated after 13 days (100=total damage to plant; 0=no damage); read-out: Percentage damage caused to weed species, IPOHE
# Procedure, shortened: as §2
# [12] = system: Echinochloa crus-galli (ECHCG); experiment: as above; conditions: 312 h, pre-emergence, rate 1,000 g/ha, evaluated after 13 days (100=total damage to plant; 0=no damage), read-out: Percentage damage caused to weed species, ECHCG
# Procedure, shortened: as §2
smiles,measurement,setting,value
"COC(=O)c1nc(-c2ccc(C)c(C)c2)nc(NCc2ccco2)c1Cl [Compound 255-48, 5-Chloro-2-(3,4-dimethylphenyl)-4-(furan-2-yl-methyl-amino)-6-methoxy-carbonylpyrimidine]",pest or weed control at 1000 g/ha,Setaria faberi (SETFA) [1],0%
same,pest or weed control at 1000 g/ha,[2],0%
same,pest or weed control at 1000 g/ha,[3],70%
same,pest or weed control at 1000 g/ha,Solanum nigrum (SOLNI) [4],40%
same,pest or weed control at 1000 g/ha,[5],10%
same,pest or weed control at 1000 g/ha,[6],0%
same,pest or weed control at 1000 g/ha,Setaria faberi (SETFA) [7],0%
same,pest or weed control at 1000 g/ha,[8],0%
same,pest or weed control at 1000 g/ha,[9],20%
same,pest or weed control at 1000 g/ha,Solanum nigrum (SOLNI) [10],0%
same,pest or weed control at 1000 g/ha,[11],10%
same,pest or weed control at 1000 g/ha,[12],0%
"COC(=O)c1nc(-c2ccc(C)c([N+](=O)[O-])c2)nc(NCc2ccco2)c1Cl [Compound 256-48, 5-Chloro-4-(furan-2-ylmethylamino)-6-methoxycarbonyl-2-(4-methyl-3-nitrophenyl)-pyrimidine]",pest or weed control at 1000 g/ha,Setaria faberi (SETFA) [1],10%
same,pest or weed control at 1000 g/ha,[2],0%
same,pest or weed control at 1000 g/ha,[3],30%
same,pest or weed control at 1000 g/ha,Solanum nigrum (SOLNI) [4],50%
same,pest or weed control at 1000 g/ha,[5],20%
same,pest or weed control at 1000 g/ha,[6],0%
same,pest or weed control at 1000 g/ha,Setaria faberi (SETFA) [7],0%
same,pest or weed control at 1000 g/ha,[8],0%
same,pest or weed control at 1000 g/ha,[9],80%
same,pest or weed control at 1000 g/ha,Solanum nigrum (SOLNI) [10],0%
same,pest or weed control at 1000 g/ha,[11],0%
same,pest or weed control at 1000 g/ha,[12],0%
"COC(=O)c1nc(-c2ccc(C)cc2F)nc(NCc2ccco2)c1Cl [Compound 257-48, 5-Chloro-2-(2-fluoro-4-methylphenyl)-4-(furan-2-ylmethylamino)-6-methoxycarbonyl-pyrimidine]",pest or weed control at 1000 g/ha,Setaria faberi (SETFA) [1],0%
same,pest or weed control at 1000 g/ha,[2],20%
same,pest or weed control at 1000 g/ha,[3],100%
same,pest or weed control at 1000 g/ha,Solanum nigrum (SOLNI) [4],40%
same,pest or weed control at 1000 g/ha,[5],60%
same,pest or weed control at 1000 g/ha,[6],10%
same,pest or weed control at 1000 g/ha,Setaria faberi (SETFA) [7],10%
same,pest or weed control at 1000 g/ha,[8],20%
same,pest or weed control at 1000 g/ha,[9],90%
same,pest or weed control at 1000 g/ha,Solanum nigrum (SOLNI) [10],10%
same,pest or weed control at 1000 g/ha,[11],30%
same,pest or weed control at 1000 g/ha,[12],40%
"COC(=O)c1nc(-c2ccc(OC)cc2F)nc(NCc2ccco2)c1Cl [Compound 258-48, 5-Chloro-2-(2-fluoro-4-methoxyphenyl)-4-(furan-2-ylmethyl-amino)-6-methoxy-carbonylpyrimidine]",pest or weed control at 1000 g/ha,Setaria faberi (SETFA) [1],40%
same,pest or weed control at 1000 g/ha,[2],10%
same,pest or weed control at 1000 g/ha,[3],90%
same,pest or weed control at 1000 g/ha,Solanum nigrum (SOLNI) [4],50%
same,pest or weed control at 1000 g/ha,[5],30%
same,pest or weed control at 1000 g/ha,[6],0%
same,pest or weed control at 1000 g/ha,Setaria faberi (SETFA) [7],20%
same,pest or weed control at 1000 g/ha,[8],30%
same,pest or weed control at 1000 g/ha,[9],70%
same,pest or weed control at 1000 g/ha,Solanum nigrum (SOLNI) [10],0%
same,pest or weed control at 1000 g/ha,[11],30%
same,pest or weed control at 1000 g/ha,[12],0%
"COC(=O)c1nc(-c2ccc(OC)c(OC)c2)nc(NCc2ccco2)c1Cl [Compound 260-48, 5-Chloro-2-(3,4-dimethoxyphenyl)-4-(furan-2-ylmethyl-amino)-6-methoxy-carbonylpyrimidine]",pest or weed control at 1000 g/ha,Setaria faberi (SETFA) [1],0%
same,pest or weed control at 1000 g/ha,[2],0%
same,pest or weed control at 1000 g/ha,[3],20%
same,pest or weed control at 1000 g/ha,Solanum nigrum (SOLNI) [4],30%
same,pest or weed control at 1000 g/ha,[5],0%
same,pest or weed control at 1000 g/ha,[6],0%
same,pest or weed control at 1000 g/ha,Setaria faberi (SETFA) [7],0%
same,pest or weed control at 1000 g/ha,[8],0%
same,pest or weed control at 1000 g/ha,[9],0%
same,pest or weed control at 1000 g/ha,Solanum nigrum (SOLNI) [10],0%
same,pest or weed control at 1000 g/ha,[11],0%
same,pest or weed control at 1000 g/ha,[12],0%
"COC(=O)c1nc(-c2ccc(Cl)c(N(C)C)c2F)nc(NCc2ccco2)c1Cl [Compound 261-48, 5-Chloro-2-(4-chloro-3-dimethylamino-2-fluorophenyl)-4-(furan-2-yl-methyl-amino)-6-methoxy-carbonylpyrimidine]",pest or weed control at 1000 g/ha,Setaria faberi (SETFA) [1],90%
same,pest or weed control at 1000 g/ha,[2],50%
same,pest or weed control at 1000 g/ha,[3],100%
same,pest or weed control at 1000 g/ha,Solanum nigrum (SOLNI) [4],80%
same,pest or weed control at 1000 g/ha,[5],60%
same,pest or weed control at 1000 g/ha,[6],70%
same,pest or weed control at 1000 g/ha,Setaria faberi (SETFA) [7],90%
same,pest or weed control at 1000 g/ha,[8],50%
same,pest or weed control at 1000 g/ha,[9],100%
same,pest or weed control at 1000 g/ha,Solanum nigrum (SOLNI) [10],40%
same,pest or weed control at 1000 g/ha,[11],30%
same,pest or weed control at 1000 g/ha,[12],90%
